Test results from PMC8428568, “Discovery of re-purposed drugs that slow SARS-CoV-2 replication in human cells” (PLoS Pathogens, 2021).
Structures can show the parent of a compound that is named as a salt. Where two headings read alike, the source gives them in different places.

What was measured:
[1] = test system: recombinant NLuc; type: biochemical; conditions: for Relative Recombinant NLUC: recombinant NLuc activity relative to DMSO; for Reads Counts per second (read 1): first read column; for Reads Counts per second (read 4): fourth read column; for Reads Counts per second (read 3): third read column
[2] = test system: SARS-CoV-2-ΔOrf7a-NLuc virus; assay: microbe, parasite or virus in culture; type: cell-based; conditions: for Mean relative luminescence (n=4): HUH7 screen; for IC50: Severe acute respiratory syndrome coronavirus 2, Huh-7, read-out: HUH7 IC50
[3] = test system: SARS-CoV-2-ΔOrf7a-NLuc virus; assay: Post-infection treatment: Vero cells infected 24 hrs with SARS-CoV-2-ΔOrf7a-NLuc, then compound for 48 hrs, bioluminescence; type: cell-based; conditions: for Post-infection at IC50: change in replication relative to DMSO, cells infected 24 hrs, then treated 48 hrs
[4] = test system: SARS-CoV-2-ΔOrf7a-NLuc virus; assay: microbe, parasite or virus in culture; type: cell-based; conditions: for activity at 10 µM: Severe acute respiratory syndrome coronavirus 2, Vero, 72 h, read-out: Mean relative luminescence (n=4); for IC50: Severe acute respiratory syndrome coronavirus 2
[5] = test system: HUH7 cells; conditions: HUH7 screen
[6] = test system: Vero cells
[7] = 1 = untreated, 0 = total inhibition
[8] = Vero screen, relative luminescence
[9] = Vero cells, 10 μM, 1 = DMSO-treated infected cells

SMILES | Relative Recombinant NLUC [1] | Reads Counts per second (read 1) ([1]; recombinant NLuc) | Reads Counts per second (read 4) ([1]; recombinant NLuc) | Reads Counts per second (read 3) ([1]; recombinant NLuc) | suppression of SARS-CoV-2 replication [2] | Mean relative luminescence (n=4) [2] | IC50 [2] | Post-infection at IC50 [3] | % activity in Vero 100PFU screen [4] | activity at 10 µM [4, 7] | IC50 ([4]; Vero cells) | reduction of virus replication ([4]; Vero cells, 100PFU screen, 10 μM) | Mean relative luminescence (n=4) [4, 8] | PrestoBlue relative viability [5] | PrestoBlue relative viability [6, 9] | PrestoBlue relative viability ([6]; Vero screen) | effect on virus replication [2] | effect on replication in cells already infected ([3]; Vero cells infected 24 hrs then treated 48 hrs) | Reads Counts per second (read 2) ([1]; recombinant NLuc, second read) | Mean relative luminescence (n=4) [4, 7]
C=C1CC[C@H](O)C/C1=C/C=C1\CCC[C@]2(C)[C@@H]([C@H](C)CCCC(C)C)CC[C@@H]12 [Vitamin D3] | 0.9682 | 370629 Counts per second | 364312 Counts per second | 360711 Counts per second | ≥ 85% | 0.02567 | 3000 nM | -30% | 12% | 9.68% | 10000 nM | ≥ 85% | 0.09678 | 0.6418 | 1.049 | 1.049 | – | – | – | –
Cc1[nH]c2ccccc2c1CCNCc1ccc(/C=C/C(=O)NO)cc1 [Panobinostat] | 0.8963 | 330994 Counts per second | 341728 Counts per second | 343634 Counts per second | – | 0.05897 | < 200 nM | -25% | 3.68% | 1.87% | < 200 nM | – | 0.01867 | 0.753 | 0.6021 | 0.6021 | completely blocked replication of SARS-CoV-2 at all doses tested | a more modest effect on replication | – | –
CCN1CCN(Cc2ccc(Nc3ncc(F)c(-c4cc(F)c5nc(C)n(C(C)C)c5c4)n3)nc2)CC1 [LY2835219] | 0.9189 | 345999 Counts per second | 348685 Counts per second | 345910 Counts per second | – | 0.07242 | 200 nM | -40% | 3.32% | 2.68% | 1000 nM | – | 0.02684 | 0.6043 | 0.5512 | 0.5512 | – | – | – | –
COc1nc2ccc(Br)cc2cc1[C@@H](c1ccccc1)[C@@](O)(CCN(C)C)c1cccc2ccccc12 [Bedaquiline] | 0.9285 | 348601 Counts per second | 351646 Counts per second | 347079 Counts per second | – | – | 5000 nM | -30% | 3.54% | 1.02% | 10000 nM | – | – | – | 0.8784 | – | – | – | 355872 Counts per second | –
CC[C@H](C)C(=O)O[C@H]1C[C@@H](C)C=C2C=C[C@H](C)[C@H](CC[C@@H]3C[C@@H](O)CC(=O)O3)[C@H]21 [Lovastatin] | 0.9319 | 351803 Counts per second | 349914 Counts per second | 353101 Counts per second | – | 0.08758 | – | – | 9% | 8.28% | – | – | 0.0828 | 1.075 | 0.5479 | 0.5479 | – | – | – | –
COc1cccc2c1C(=O)c1c(O)c3c(c(O)c1C2=O)C[C@@](O)(C(C)=O)C[C@@H]3O[C@H]1C[C@H](N)[C@H](O)[C@H](C)O1 [Daunorubicin HCl] | 0.8615 | 319222 Counts per second | 328432 Counts per second | 327409 Counts per second | – | 0.006058 | – | – | 5% | 2.1% | – | – | 0.02101 | 0.5186 | 0.6965 | 0.6965 | – | – | – | –
COc1cc2nccc(Oc3ccc(NC(=O)C4(C(=O)Nc5ccc(F)cc5)CC4)cc3)c2cc1OC [Cabozantinib malate (XL184), Cabozantinib malate] | 0.8679 | 333265 Counts per second | 328687 Counts per second | 329153 Counts per second | – | 0.03412 | – | – | 12% | 10.3% | – | – | 0.1026 | 0.8011 | 0.5119 | 0.5119 | – | – | – | –
Cl.Cl.Cl.O[C@@H](COc1cccc2ncccc12)CN1CCN([C@@H]2c3ccccc3[C@@H]3[C@H](c4ccccc42)C3(F)F)CC1 [LY335979 (Zosuquidar 3HCL), Zosuquidar 3HCL] | 0.9362 | 352212 Counts per second | 351420 Counts per second | 356783 Counts per second | – | 0.08231 | – | – | 3% | – | – | – | 0.008621 | 0.6203 | 0.5866 | 0.5866 | – | – | – | 0.008621
O=C(c1ccc(OCCN2CCCCC2)cc1)c1c(-c2ccc(O)cc2)sc2cc(O)ccc12 [Raloxifene HCl] | 0.8812 | 334037 Counts per second | 335545 Counts per second | 331016 Counts per second | – | 0.03646 | – | – | 6% | 2.63% | – | – | 0.02628 | 0.5413 | 0.579 | 0.579 | – | – | – | –
Cc1cc(C2CCCCC2)n(O)c(=O)c1.NCCO [Ciclopirox ethanolamine] | 0.961 | 358391 Counts per second | 361119 Counts per second | 365653 Counts per second | – | 0.04601 | – | – | 7% | – | – | – | 0.05436 | 0.5023 | 0.5173 | 0.5173 | – | – | – | 0.05436
O=C(/C=C\n1cnc(-c2cc(C(F)(F)F)cc(C(F)(F)F)c2)n1)NNc1cnccn1 [KPT-330] | 1.022 | 378225 Counts per second | 381493 Counts per second | 389989 Counts per second | – | 0.05859 | – | – | 3.73% | 0.545% | – | – | 0.005454 | 0.7102 | 0.581 | 0.581 | – | – | – | –
